Measurements taken from paper PMC10631261 (Chemical Science, 2023).
Read-outs that look alike come from different tables or passages of the source.

Experiments:
[1] = tested on: SLC2A1; assay: qRT-PCR of SLC2A1 expression in Hep3B cells; assay type: cell-based, human; settings: for increase of SLC2A1 levels: qPCR, relative to DMSO
Experimental: (§1) 4. Methods for cell studies […]
(§2) in Minimum Essential Medium (MEM, GIBCO) with 10% fetal bovine serum (FBS, BI), 100 U/mL penicillin and 100 μg/mL streptomycin (1 × P/S, NCM Biotech). […]
(§3) and 100 μg/mL streptomycin (1 × P/S, NCM Biotech).
(§4) Quantitative PCR Analysis of Gene Expression […]
(§5) treated with vehicle (DMSO) or an inhibitor (at the concentrations indicated) for 12 h. Total RNA was isolated from cells and tissues using Trizol regents (Vazyme, China). 1 μg RNA was used for reverse transcription using HiScript III RT SuperMix for qPCR (Vazyme, China). cDNAs were amplified in a ChamQ Universal SYBR qPCR Master Mix (Vazyme, China). Quantitative PCR (qPCR) was performed on […]
(§6) a ABI QuantStudio 3 system.
(§7) The relative amount of mRNA was calculated after
(§8) 3T3-L1 derived adipocytes. […]

[2] = tested on: EPO; assay: qRT-PCR of EPO expression in Hep3B cells; assay type: cell-based, human; settings: for upregulation of EPO: qPCR, relative to DMSO; for EPO levels in combination with FG-4592 compared with FG-4592 alone: with FG-4592, to a lesser extent than CA9
Experimental: as §1, §2, §3, §4, §5, §6, §7, §8

[3] = tested on: EGLN3; assay: qRT-PCR of EGLN3 expression in Hep3B cells; assay type: cell-based, human; settings: for increase of EGLN3 expression relative to DMSO: 50 μM, 12 h, qRT-PCR
Experimental: as §1, §2, §3, §4, §5, §6, §7, §8

[4] = tested on: 3T3-L1 derived adipocytes; assay: Cellular triglyceride (TG) colorimetric assay; assay type: cell-based
Experimental: as §1, §2
(§9) and 100 μg/mL streptomycin (1 × P/S, NCM Biotech). […]
(§10) 3T3-L1 derived adipocytes.
(§11) 10% newborn calf serum (NCS, GIBCO), 100 U/mL penicillin and 100 μg/mL streptomycin (1 × P/S, NCM […]
(§12) The 3T3-L1 cells were strictly subcultured before they
Subcultures of 3T3 -L1 cells were routinely cultured in DMEM medium containing 10% NCS for two days, and then the cells were cultured in DMEM containing 10% FBS, 0.5 mM 3 -isobutyl-1-methylxanthine, 1 μM dexamethasone, 10 μg/mL insulin and 2 μM rosiglitazone for another two days. Subsequently, the cells were cultured in DMEM containing 10% FBS and 10 μg/mL insulin for two days. After these procedures, the cells were maintained in […]
To investigate the effect of inhibitors on adipocytes, 3T3-L1-derived adipocytes were treated with vehicle (DMSO) or with an inhibitor (at the concentrations indicated) for 48 h. […]
Cellular TG level assay for 3T3 -L1 derived adipocytes.
The 3T3-L1-derived adipocytes were washed with PBS, then the cells were lysed. And then, the cellular TG level was determined by using a cellular triglyceride assay kit (Applygen, China).
Oil Red O staining for 3T3-L1 derived adipocytes.

[5] = tested on: CA9; assay: qRT-PCR of CA9 expression in Hep3B cells; assay type: cell-based, human; settings: for upregulation of CA9: qPCR, relative to DMSO
Experimental: as §1, §2, §3, §4, §5, §6, §7, §8

[6] = tested on: EGLN3; assay: qRT-PCR of EGLN3 expression in 786-O cells; assay type: cell-based; settings: VHL-deficient 786-O cells
Experimental: as §1, §2, §3, §4, §5, §6, §7, §8

[7] = target: T1, FIH (Homo sapiens, UniProt Q9NWT6); settings: ESI Table S1; ref 19 (ESI); cited from earlier work
T1 construct: made in house
T1 sequence (Q9NWT6 whole entry): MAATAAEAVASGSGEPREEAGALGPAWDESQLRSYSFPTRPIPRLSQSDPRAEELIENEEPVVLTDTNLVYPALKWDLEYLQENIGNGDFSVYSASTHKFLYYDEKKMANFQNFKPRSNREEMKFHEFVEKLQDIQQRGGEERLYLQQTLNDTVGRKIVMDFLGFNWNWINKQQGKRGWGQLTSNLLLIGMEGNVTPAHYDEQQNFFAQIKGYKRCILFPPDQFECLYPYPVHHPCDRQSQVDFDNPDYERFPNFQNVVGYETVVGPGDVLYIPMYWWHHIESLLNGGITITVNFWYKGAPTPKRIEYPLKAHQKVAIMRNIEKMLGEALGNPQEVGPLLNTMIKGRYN

[8] = target: PHD2 (Homo sapiens, UniProt Q9GZT9); assay: biochemical
Sequence of PHD2 (Q9GZT9 181-426): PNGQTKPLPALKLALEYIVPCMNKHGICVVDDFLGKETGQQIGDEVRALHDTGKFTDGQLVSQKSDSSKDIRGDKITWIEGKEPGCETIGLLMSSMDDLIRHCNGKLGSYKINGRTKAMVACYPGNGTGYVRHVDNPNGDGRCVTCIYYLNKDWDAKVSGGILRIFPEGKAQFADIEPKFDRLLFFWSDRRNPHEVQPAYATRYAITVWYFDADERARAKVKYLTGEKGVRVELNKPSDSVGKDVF
Experimental: (§13) 3. Biochemical procedures
(§14) Protein production and purification
(§15) PAGE analysis) according to established procedures.
(§16) FIH, PHD2, AspH, JMJD5 and KDM4A inhibition assays
(§17) The in vitro FIH,1, 2 PHD2,1 AspH,38 JMJD536 and KDM4A39 inhibition assays were performed as […]
(§18) KDM4A). Synthetic peptide substrates were used: HIF-1α C-terminal transactivation domain fragment […]
(§19) H3Lys9 bearing three methyl groups at the N ϵ position, H3Lys4 substituted by an Ala and H3Lys14 substituted by an Ile residue) for KDM4A.39 Peptides were prepared as C-terminal amides by GL Biochem (Shanghai) Ltd. Peptide hydroxylation in the case of FIH, PHD2, AspH and JMJD5 (+16 Da mass shift) or peptide demethylation in the case of KDM4A ( -14 Da mass shift) was monitored by SPE-MS. […]

[9] = target: KDM4A (Homo sapiens, UniProt O75164); assay: biochemical; assay type: biochemical
Sequence of KDM4A (O75164 1-359): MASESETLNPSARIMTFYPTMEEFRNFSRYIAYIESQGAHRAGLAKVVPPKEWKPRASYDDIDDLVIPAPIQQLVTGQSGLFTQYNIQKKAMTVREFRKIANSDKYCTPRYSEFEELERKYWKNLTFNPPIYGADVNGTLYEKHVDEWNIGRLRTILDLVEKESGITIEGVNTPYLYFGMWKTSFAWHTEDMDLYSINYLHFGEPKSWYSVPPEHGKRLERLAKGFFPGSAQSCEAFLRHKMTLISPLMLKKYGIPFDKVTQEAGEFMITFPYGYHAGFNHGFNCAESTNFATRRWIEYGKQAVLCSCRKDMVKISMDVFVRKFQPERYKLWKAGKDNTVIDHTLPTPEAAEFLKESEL
From the text: (§20) To investigate the potential of BNS for selective FIH inhibition, its selectivity was investigated with respect to other 2OG-dependent protein oxidising enzymes, that is PHD2, Jumonji-C domain-containing protein 5 (JMJD5), aspartate/asparagine-β-hydroxylase (AspH) and KDM4A, using reported SPE-MS inhibition assays.[58,61,69,70] In addition to PHD2 and KDM4A, we included AspH and JMJD5 in our selectivity studies, because AspH, like FIH, catalyses protein aspartate- and asparagine-residue hydroxylation (although in epidermal growth factor-like domains),[71,72] and because JMJD5 is structurally closely related to FIH.[73,74]
as §13, §14, §15, §16, §17, §18, §19

[10] = target: T2, JMJD5 (Homo sapiens, UniProt Q8N371); set-up: method as in PMID 37292060; settings: cited from earlier work
T2 sequence (Q8N371 whole entry): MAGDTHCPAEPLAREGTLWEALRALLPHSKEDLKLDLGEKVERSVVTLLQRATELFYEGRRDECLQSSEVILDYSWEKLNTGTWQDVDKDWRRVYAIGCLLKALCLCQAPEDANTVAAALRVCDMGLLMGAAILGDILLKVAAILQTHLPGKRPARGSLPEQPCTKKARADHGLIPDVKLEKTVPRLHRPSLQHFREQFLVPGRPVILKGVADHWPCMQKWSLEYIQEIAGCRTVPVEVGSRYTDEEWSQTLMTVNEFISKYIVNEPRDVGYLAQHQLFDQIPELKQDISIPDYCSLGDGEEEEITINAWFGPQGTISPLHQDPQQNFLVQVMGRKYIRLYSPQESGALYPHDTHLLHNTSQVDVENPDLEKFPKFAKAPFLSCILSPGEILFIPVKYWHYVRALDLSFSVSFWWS

[11] = target: T3, AspH (Homo sapiens, UniProt Q12797); settings: cited from earlier work
T3 sequence (Q12797 315-758): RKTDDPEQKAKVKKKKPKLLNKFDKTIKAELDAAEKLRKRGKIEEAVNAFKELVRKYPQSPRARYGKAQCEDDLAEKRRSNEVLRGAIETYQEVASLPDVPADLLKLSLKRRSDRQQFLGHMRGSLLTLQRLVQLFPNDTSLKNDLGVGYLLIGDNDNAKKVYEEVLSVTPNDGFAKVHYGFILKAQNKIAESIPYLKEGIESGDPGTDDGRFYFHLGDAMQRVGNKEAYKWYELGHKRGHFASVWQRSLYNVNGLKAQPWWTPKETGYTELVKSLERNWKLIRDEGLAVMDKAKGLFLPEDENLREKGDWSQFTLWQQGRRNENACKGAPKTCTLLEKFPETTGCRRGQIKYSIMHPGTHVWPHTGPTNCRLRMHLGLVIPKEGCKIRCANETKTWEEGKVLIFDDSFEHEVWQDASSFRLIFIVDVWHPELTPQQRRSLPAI

[12] = target: T1, FIH; assay: SPE-MS FIH inhibition assay; assay type: biochemical; settings: for FIH inhibition potency relative to 2,4-PDCA (more potent): IC50 comparison with 2,4-PDCA
Experimental: as §14, §15, §16, §17, §18, §19

[13] = target: T3, AspH; assay: biochemical
From the text: as §20, §13, §14, §15, §16, §17, §18, §19

[14] = target: T2, JMJD5; assay: biochemical; settings: read-out: JMJD5 IC50
From the text: as §20, §13, §14, §15, §16, §17, §18, §19

[15] = tested on: 3T3-L1 derived adipocytes; assay type: cell-based
Experimental: as §1, §2, §9, §10, §11, §12
Subcultures of 3T3 -L1 cells were routinely cultured in DMEM medium containing 10% NCS for two days, and then the cells were cultured in DMEM containing 10% FBS, 0.5 mM 3 -isobutyl-1-methylxanthine, 1 μM dexamethasone, 10 μg/mL insulin and 2 μM rosiglitazone for another two days. Subsequently, the cells were cultured in DMEM containing 10% FBS and 10 μg/mL insulin for two days. After these procedures, the cells were maintained in DMEM containing 10% FBS. T he last induction procedure was repeated 2 -3 times until lipid droplets […]
Viability Assay for 3T3-L1 derived adipocytes.
To investigate the effect of inhibitors on adipocytes, 3T3-L1-derived adipocytes were treated with vehicle (DMSO) or with an inhibitor (at the concentrations indicated) for 48 h. Cell viability was […]
Microplate Reader (Tecan) at OD 450 nm. […]

| Compound | increase of SLC2A1 levels [1] | upregulation of EPO [2] | increase of EGLN3 expression relative to DMSO [3] | EGLN3 upregulation on co-administration with FG-4592 relative to compound alone [3] | upregulation of CA9 [5] | effect on EGLN3 gene expression [6] | IC50 [8] | IC50 [9] | IC50 [12] | FIH inhibition potency relative to 2,4-PDCA (more potent) [12] | selectivity for FIH inhibition over AspH inhibition ([12]; as judged by IC50 values) | selectivity for FIH inhibition over KDM4A inhibition ([12]; as judged by IC50 values) | IC50 [13] | IC50 [14] | also measured |
| --- | --- | --- | --- | --- | --- | --- | --- | --- | --- | --- | --- | --- | --- | --- | --- |
| COC(=O)C(=O)N[C@H](Cc1ccccc1)C(=O)OC [DM-NOFD, dimethyl N-oxalyl-D-phenylalanine] | ~1.3 fold | no response | ~1.8 fold | no additional effect | no response | upregulation of EGLN3 |  |  |  |  |  |  |  |  | SLC2A1 gene expression in combination with FG-4592 [1]: no synergistic effect; EPO levels in combination with FG-4592 compared with FG-4592 alone [2]: increase; effect on TG levels ([4]; 100 μM): no effect; CA9 levels in combination with FG-4592 compared with FG-4592 alone [5]: increase |
| Cc1nc(C(=O)NCC(=O)O)c(O)c2ccc(Oc3ccccc3)cc12 [FG-4592] | ~4 fold | ~7 fold |  |  | ~8 fold |  |  |  |  |  |  |  |  |  | effect on Hep3B EGLN3 levels ([3]; compound alone): no effect; IC50 [7]: > 100 µM |
| O=C(O)C(=O)N[C@H](Cc1ccccc1)C(=O)O [NOFD, N-oxalyl-D-phenylalanine, reference compound] |  |  |  |  |  |  | > 100 µM | 14.1 µM |  |  |  |  |  |  | IC50 [10]: > 100 µM; IC50 [11]: 15.5 µM |
| O=C(O)CNC(=O)C(=O)O [NOG, N-oxalylglycine, reference compound] |  |  |  |  |  |  |  |  | 0.36 ± 0.03 µM |  |  |  |  |  | IC50 ([9]; 0.15 μM KDM4A, 10.0 μM 2OG, 10.0 μM H3 1–15 K9me3, SPE-MS): 22.1 ± 1.1 µM; IC50 ([11]; SPE-MS, ref [58]): 1.1 ± 0.3 µM |
| O=C(O)Cc1csc(=NC(=O)C2CCN(S(=O)(=O)c3ccc(-c4ccccc4)cc3)C2)n1O (centres unmarked) [compound 38] |  |  | ~2.5 fold | greater increase |  | upregulation of EGLN3 | 3.1 ± 0.1 µM | > 100 µM | 0.26 ± 0.01 µM | ~10 fold | > 100 fold | > 300 fold | 30.2 ± 10.9 µM | 31.9 ± 2 µM | melting point: 180 to 183 °C |
| O=C(O)Cc1csc(=NC(=O)C2CCN(S(=O)(=O)c3ccc(Oc4ccccc4)cc3)C2)n1O (centres unmarked) [compound 39] |  |  | ~2.5 fold | no additional effect |  | upregulation of EGLN3 | 3.1 ± 0.2 µM | > 100 µM | 0.29 ± 0.03 µM | ~10 fold | > 100 fold | > 300 fold | 29.8 ± 4.3 µM | 8.6 ± 0.2 µM | melting point: 179 to 183 °C |
| O=C(O)Cc1csc(=NC(=O)C2CCN(S(=O)(=O)Cc3ccccc3)C2)n1O (centres unmarked) [compound 42] | ~1.5 fold | no response | ~2.5 fold | greater increase | no response | upregulation of EGLN3 | 6.9 ± 0.5 µM | > 100 µM | 0.28 ± 0.02 µM | ~10 fold | > 100 fold | > 300 fold | 43.1 ± 18.7 µM | 7.2 ± 2.8 µM | selectivity for FIH inhibition over JMJD5 inhibition ([12]; as judged by IC50 values): ~25 fold; selectivity for FIH inhibition over PHD2 inhibition ([12]; as judged by IC50 values): ~25 fold; SLC2A1 gene expression in combination with FG-4592 [1]: no synergistic effect; EPO levels in combination with FG-4592 compared with FG-4592 alone [2]: increase; reduction in cellular TG levels ([4]; 50 μM): ~30%; CA9 levels in combination with FG-4592 compared with FG-4592 alone [5]: increase; cytotoxicity (cell viability) [15]: Neither 42 and 42b exhibited apparent cytotoxicity |
| CC[C@H]1[C@@H](O)[C@@H]2[C@H](CC[C@]3(C)[C@@H]([C@H](C)CCC(=O)O)CC[C@@H]23)[C@@]2(C)CC[C@@H](O)C[C@@H]12 [obeticholic acid] |  |  |  |  |  |  |  |  |  |  |  |  |  |  | reduction in cellular TG levels ([4]; 20 μM): 25% |
